Here are results for nine compounds from PubChem BioAssay (NCI).

The structures appear in SMILES notation.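 Following 48 hours of exposure in 96-well plates, responses at five concentrations were used to interpolate endpoints linearly. Definition used: TGI = concentration required for complete inhibition of growth.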

Some test systems named below: KM12 colon; HS 578T breast; A549 NSCLC; PC-3 prostate; ACHN renal; MALME-3M melanoma; OVCAR-5 ovarian; MOLT-4 leukemia; UACC-257 melanoma; IGROV1 ovarian; NCI-H522 lung; SK-OV-3 ovarian; SK-MEL-28 melanoma; HOP-92 NSCLC; SF-539 CNS; HCT-116 colon.
Experiment in all cases: growth of human tumour cells (NCI), 48 h

With `Cc1cc(NS(=O)(=O)c2ccc(Nc3c4ccccc4nc4c(C(=O)NCCO)cccc34)cc2)no1`, the TGI with KM12 colon is 62.7 µM; in the assay with HS 578T breast, above 100 µM; in the assay on A549 NSCLC it was above 100 µM; in the assay on PC-3 prostate it was above 100 µM; in the assay on ACHN renal, above 100 µM; in the assay on MALME-3M melanoma it was 70.4 µM. Moreover, the TGI with OVCAR-5 ovarian is above 100 µM; in the assay on MOLT-4 leukemia it was above 100 µM; in the assay with UACC-257 melanoma it was above 100 µM; in the assay with IGROV1 ovarian, above 100 µM; in the assay on NCI-H522 lung, 30.2 µM; with SK-OV-3 ovarian, above 100 µM. The TGI in the assay with SK-MEL-28 melanoma and with HOP-92 NSCLC was above 100 µM throughout.

For `O=C(NC1(C(=O)O)CCCC1)c1ccccc1`, the TGI in the assay on KM12 colon, in the assay on HS 578T breast, in the assay with A549 NSCLC, in the assay with PC-3 prostate, with ACHN renal and in the assay on SF-539 CNS was above 100 µM each time. The TGI in the assay on OVCAR-5 ovarian, in the assay with MOLT-4 leukemia, in the assay with UACC-257 melanoma, with IGROV1 ovarian, in the assay with HCT-116 colon and in the assay on NCI-H522 lung was above 100 µM throughout. The TGI with SK-OV-3 ovarian, with SK-MEL-28 melanoma and with HOP-92 NSCLC was above 100 µM throughout.

Turning to `CC12CCC(CC1(Cl)Cl)C2` (stereo unspecified), the TGI in the assay on KM12 colon, in the assay on HS 578T breast, in the assay with A549 NSCLC, in the assay with PC-3 prostate, in the assay with ACHN renal and in the assay with MALME-3M melanoma was above 100 µM throughout. Also, the TGI in the assay on OVCAR-5 ovarian, in the assay on MOLT-4 leukemia, with UACC-257 melanoma, with IGROV1 ovarian, in the assay with NCI-H522 lung and with SK-OV-3 ovarian was above 100 µM throughout. The TGI with SK-MEL-28 melanoma and in the assay with HOP-92 NSCLC was above 100 µM throughout.

As to `Cc1cc2nnc(C(N)=O)c(N)c2cc1C`, the TGI with KM12 colon, in the assay on HS 578T breast, in the assay with A549 NSCLC, with PC-3 prostate, in the assay on ACHN renal and in the assay on SF-539 CNS was above 100 µM throughout. Besides, the TGI in the assay on MALME-3M melanoma, in the assay on OVCAR-5 ovarian, in the assay with MOLT-4 leukemia, in the assay on UACC-257 melanoma, in the assay with IGROV1 ovarian and with HCT-116 colon was above 100 µM throughout. The TGI with NCI-H522 lung, in the assay with SK-OV-3 ovarian and in the assay on HOP-92 NSCLC was above 100 µM throughout.

Turning to `O=c1[nH]nc(-c2ccc(F)cc2)cc1-c1ccccc1`, the TGI in the assay with KM12 colon, with HS 578T breast, in the assay on A549 NSCLC, with PC-3 prostate, with ACHN renal and in the assay with SF-539 CNS was above 100 µM in each case. Besides, the TGI in the assay with MALME-3M melanoma, in the assay on OVCAR-5 ovarian, with MOLT-4 leukemia, in the assay on UACC-257 melanoma, with IGROV1 ovarian and in the assay with HCT-116 colon was above 100 µM each time. Further, the TGI in the assay on SK-OV-3 ovarian, in the assay with SK-MEL-28 melanoma and in the assay with HOP-92 NSCLC was above 100 µM throughout.

Turning to `Cc1cc(C)nc(NS(=O)(=O)c2ccc(NC(=O)c3cc([N+](=O)[O-])cc([N+](=O)[O-])c3)cc2)n1`, the TGI in the assay on KM12 colon, with HS 578T breast, in the assay on A549 NSCLC, in the assay with PC-3 prostate, with SF-539 CNS and in the assay with MALME-3M melanoma was above 100 µM throughout. The TGI in the assay on MOLT-4 leukemia was 13.5 µM; with UACC-257 melanoma, above 100 µM; with IGROV1 ovarian, above 100 µM; in the assay with HCT-116 colon, above 100 µM; in the assay on SK-OV-3 ovarian it was above 100 µM; in the assay with SK-MEL-28 melanoma, above 100 µM. In the assay with HOP-92 NSCLC, this compound displayed a TGI above 100 µM.

Take `C#CC(O)/C=C/C(O)CCCC(O)CC#CC(O)C#CCCCCC(O)/C=C/CCCC(O)/C=C/CCCCCCCCCCCCCC(O)C(O)C#CC(=O)O` (stereo unspecified): the TGI in the assay on KM12 colon, in the assay with HS 578T breast, in the assay with A549 NSCLC, in the assay on PC-3 prostate, in the assay on ACHN renal and with MALME-3M melanoma was above 25 µM each time. In addition, the TGI in the assay with OVCAR-5 ovarian, in the assay with MOLT-4 leukemia, with UACC-257 melanoma, in the assay on IGROV1 ovarian, in the assay on HCT-116 colon and in the assay with NCI-H522 lung was above 25 µM in each case. Besides, the TGI with SK-OV-3 ovarian, in the assay on SK-MEL-28 melanoma and in the assay on HOP-92 NSCLC was above 25 µM throughout.

Take `C#C[C@]1(O)CC[C@H]2[C@@H]3CCC4=C/C(=N/OC(=O)c5cccc6c(=O)c7ccccc7[nH]c56)CCC4[C@H]3CC[C@@]21CC` (stereo partly specified): the TGI in the assay on KM12 colon was above 100 µM; in the assay on HS 578T breast, above 100 µM; with A549 NSCLC it was above 100 µM; in the assay on PC-3 prostate, above 96 µM; with ACHN renal, above 100 µM; in the assay with MALME-3M melanoma, above 100 µM. Moreover, the TGI with OVCAR-5 ovarian was above 100 µM; in the assay on MOLT-4 leukemia, above 69.2 µM; in the assay on UACC-257 melanoma it was above 88.1 µM; in the assay on IGROV1 ovarian, above 100 µM; in the assay on HCT-116 colon, above 100 µM; with NCI-H522 lung it was 56.1 µM. In addition, the TGI with SK-OV-3 ovarian, with SK-MEL-28 melanoma and in the assay on HOP-92 NSCLC was above 100 µM in each case.

For `NC(N)=N/N=C/c1c(-c2cc([N+](=O)[O-])c(Cl)cc2Cl)nc2n1CCS2`, the TGI in the assay on KM12 colon, with HS 578T breast, in the assay on A549 NSCLC, in the assay with PC-3 prostate, in the assay on ACHN renal and in the assay with SF-539 CNS was above 100 µM each time. In addition, the TGI was 57.9 µM with MALME-3M melanoma; above 100 µM in the assay with OVCAR-5 ovarian; 58.6 µM in the assay with MOLT-4 leukemia; 54.2 µM in the assay with UACC-257 melanoma; 36.4 µM in the assay with IGROV1 ovarian; above 100 µM with HCT-116 colon. Besides, the TGI with NCI-H522 lung worked out at 51.5 µM; in the assay with SK-MEL-28 melanoma it was 22.2 µM; with HOP-92 NSCLC it was 61.6 µM.
